We go through 16 compounds from PubChem BioAssay (NCI).

Where “and” joins values, the source holds several entries; their conditions need not be identical. Equal values may be shown once.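 96-well plates; 48 h exposure; 5 concentrations. Endpoints by linear interpolation between flanking doses. Not reached: highest tested concentration assigned. Abbreviation: GI50, concentration required for 50% inhibition of growth. TGI is the concentration that stops growth completely.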 Bounds are passed on as bounds.

One test deals with NCI-H522 lung. Kind of test: DTP human tumour cell line panel, 48 h.
Turning to `N#CC1=C(N)Oc2cc(O)ccc2C1c1cccc2ccccc12` (centres undefined), the GI50 was 6.08 µM and the concentration for total growth inhibition (TGI) came out at 19.7 µM.
In the case of `C=C1C(=O)O[C@H]2[C@H]1CC/C(COC(=O)/C=C\C(=O)NCc1ccc(Cn3c(=O)sn(CCCC)c3=O)cc1)=C\CC[C@@]1(C)O[C@@H]21`, the GI50 was 0.315 µM and the TGI came out at 1.27 µM.

The subject of another test is NCI/ADR-RES ovarian. Briefly: DTP human tumour cell line panel, 48 h.
On to `C#COc1cccc(Nc2c(C#N)cnc3ncc(NC(=O)CCl)cc23)c1`, for which the GI50 was above 62.5 µM and the total growth inhibition concentration (TGI) was above 62.5 µM.
`CN(CCO)c1ccc(N2Cc3ccccc3OC3=C2C(=O)c2c(O)ccc(O)c2C3=O)cn1`: the GI50 was 0.31 µM and the TGI is 1.34 µM.
Consider `CC[C@H]1CN2CCc3cc(OC)c(OC)cc3[C@@H]2C[C@@H]1C[C@H]1NCCc2c1[nH]c1ccc(O)cc21`, for which the GI50 was 0.0161 µM.
For `CCCCCOc1ccc(/C=N/Nc2cc(C)nc3ccc(Br)cc23)cc1`, the GI50 is 1.83 µM and the TGI is 4.19 µM.
For the compound `CC(=O)Oc1ccccc1C(=O)Nc1ncc([N+](=O)[O-])s1`, the GI50 was 2.29 µM and the TGI was above 85.2 µM.
Regarding `O=C1NC(=O)C(c2cccc([N+](=O)[O-])c2)=C1Nc1cc(Cl)c(O)c(Cl)c1`, the GI50 is above 25 µM and the TGI was above 25 µM.
For the compound `O=C(O)CC(NC(=O)CP(=O)(O)O)C(=O)O` (centres undefined), the TGI is above 10000 µM.
As to `OCc1ccn2c1[C@@H](O)CC2`, the TGI is above 100 µM.
The same measure, in the same setting: to `Cc1[nH]c(/C=C2\C(=O)Nc3ccccc32)c(C)c1CCC(=O)O` belongs above 100 µM; to `c1ccc2c(c1)c1c(c3ccccc32)CN2CCCC2C1` (centres undefined), above 41.5 µM.
The same measure, in the same setting: then `NCCSc1nc(-c2ccccc2)c(-c2ccccc2)o1`, with above 100 µM.
In the case of `O=C(c1ccc(/C=C/c2n[nH]c3ccccc23)cc1)N1CCNCC1`, the GI50 is > 10 µM and 15.8 µM; the TGI is > 10 µM and 36.7 µM.
Turning to `CCOC(=O)c1c(NC(=O)c2cccc(C(F)(F)F)c2)sc2c(CN(C)C)c(O)ccc12`, the GI50 was 8.82 µM and the TGI worked out at 21 µM.
Regarding `O=C(Nc1ccc(-n2ccc3c(NC(=O)c4ccccc4)nccc32)cc1)Nc1ccc(Cl)c(Cl)c1`, the GI50 is 1.31 µM and the TGI was 4.52 µM.
As for `N#CC1=C(N)Oc2cc(O)ccc2C1c1cccc2ccccc12` (centres undefined), the GI50 was 3.98 µM and the TGI was 22.8 µM.
For `C=C1C(=O)O[C@H]2[C@H]1CC/C(COC(=O)/C=C\C(=O)NCc1ccc(Cn3c(=O)sn(CCCC)c3=O)cc1)=C\CC[C@@]1(C)O[C@@H]21`, the GI50 is 1.51 µM and the TGI was found to be 6.13 µM.

The test system of a further test is OVCAR-5 ovarian. Briefly: DTP human tumour cell line panel, 48 h.
Consider `C#COc1cccc(Nc2c(C#N)cnc3ncc(NC(=O)CCl)cc23)c1`, for which the GI50 is above 62.5 µM and the TGI is above 62.5 µM.
Regarding `CN(CCO)c1ccc(N2Cc3ccccc3OC3=C2C(=O)c2c(O)ccc(O)c2C3=O)cn1`, the GI50 is 0.325 µM and the TGI was determined as 0.997 µM.
In the case of `CC[C@H]1CN2CCc3cc(OC)c(OC)cc3[C@@H]2C[C@@H]1C[C@H]1NCCc2c1[nH]c1ccc(O)cc21`, the GI50 is 0.0246 µM and 0.0401 µM; the TGI was 0.091 µM and 0.335 µM and 0.379 µM.
Consider `CCCCCOc1ccc(/C=N/Nc2cc(C)nc3ccc(Br)cc23)cc1`, for which the GI50 is 1.83 µM and the TGI turned out to be 3.28 µM.
Regarding `CC(=O)Oc1ccccc1C(=O)Nc1ncc([N+](=O)[O-])s1`, the GI50 is 4.07 µM and the TGI is above 100 µM.
For `O=C1NC(=O)C(c2cccc([N+](=O)[O-])c2)=C1Nc1cc(Cl)c(O)c(Cl)c1`, the GI50 is above 25 µM and the TGI was above 25 µM.
For the compound `O=C(O)CC(NC(=O)CP(=O)(O)O)C(=O)O` (centres undefined), the TGI is above 10000 µM.
On to `OCc1ccn2c1[C@@H](O)CC2`, for which the TGI was above 100 µM.
As for `Cc1[nH]c(/C=C2\C(=O)Nc3ccccc32)c(C)c1CCC(=O)O`, the GI50 is 21.5 µM; the TGI was 81.8 µM and 97.4 µM.
With `c1ccc2c(c1)c1c(c3ccccc32)CN2CCCC2C1` (centres undefined), the TGI was above 43.4 µM.
The same measure, in the same setting: to `NCCSc1nc(-c2ccccc2)c(-c2ccccc2)o1` belongs above 100 µM.
Turning to `O=C(c1ccc(/C=C/c2n[nH]c3ccccc23)cc1)N1CCNCC1`, the GI50 is > 10 µM and 2.51 µM; the TGI is > 10 µM and 26.1 µM.
Take `CCOC(=O)c1c(NC(=O)c2cccc(C(F)(F)F)c2)sc2c(CN(C)C)c(O)ccc12`: the GI50 is 4.58 µM and the TGI stood at 16.7 µM.
Turning to `O=C(Nc1ccc(-n2ccc3c(NC(=O)c4ccccc4)nccc32)cc1)Nc1ccc(Cl)c(Cl)c1`, the GI50 was 3.52 µM and the TGI stood at 32.9 µM.
For `N#CC1=C(N)Oc2cc(O)ccc2C1c1cccc2ccccc12` (centres undefined), in that order: 14.6 µM and 28.8 µM.
Regarding `C=C1C(=O)O[C@H]2[C@H]1CC/C(COC(=O)/C=C\C(=O)NCc1ccc(Cn3c(=O)sn(CCCC)c3=O)cc1)=C\CC[C@@]1(C)O[C@@H]21`, the GI50 was 1.33 µM and the TGI worked out at 2.75 µM.

The next test relates to SF-295 CNS. Briefly: DTP human tumour cell line panel, 48 h.
Regarding `C#COc1cccc(Nc2c(C#N)cnc3ncc(NC(=O)CCl)cc23)c1`, the GI50 was above 62.5 µM and the TGI was above 62.5 µM.
`CN(CCO)c1ccc(N2Cc3ccccc3OC3=C2C(=O)c2c(O)ccc(O)c2C3=O)cn1`: the GI50 was 1.41 µM and the TGI is 3.52 µM.
With `CC[C@H]1CN2CCc3cc(OC)c(OC)cc3[C@@H]2C[C@@H]1C[C@H]1NCCc2c1[nH]c1ccc(O)cc21`, the GI50 was 0.0323 µM and 0.246 µM.
As for `CCCCCOc1ccc(/C=N/Nc2cc(C)nc3ccc(Br)cc23)cc1`, the GI50 is 1.81 µM and the TGI is 3.5 µM.
As for `CC(=O)Oc1ccccc1C(=O)Nc1ncc([N+](=O)[O-])s1`, the GI50 is 1.91 µM.
As to `O=C1NC(=O)C(c2cccc([N+](=O)[O-])c2)=C1Nc1cc(Cl)c(O)c(Cl)c1`, the GI50 is above 16.3 µM and the TGI is above 25 µM.
Compound `O=C(O)CC(NC(=O)CP(=O)(O)O)C(=O)O` (centres undefined) gave a total growth inhibition concentration (TGI) above 10000 µM.
